# Marks after values point to notes of the source that are not given here.
# Columns and labels:
# [1] = Storage stability of boronic ester of Formula X, bulk solid state drug substance (Example 9); assay type: physicochemical
# Procedure: Bulk solid state drug substance was put in polyethylene (PE) double bag in high-density polyethylene (HDPE) containers and the containers were stored under three conditions: (a) 4° C., (b) 25° C./60% relative humidity (RH), and (c) 40° C./75% RH.
# 6-(2S,3R)—N-[(1R)-1-(1,3,6,2-dioxazaborocan-2-yl)-3-methylbutyl}-3-hydroxy-2-{(6-phenylpyridin-2-yl)formamido]butanamide converts to [(1R)-1-[[(2S,3R)-3-Hydroxy-2-[[(6-phenylpyridin-2-yl)carbonyl]amino]-1-oxobutyl]amino]-3-methylbutyl]boronic acid (i.e., Compound 1) as soon as it is in the presence of an aqueous phase. Therefore, HPLC analysis of purity was of the [(1R)-1-[[(2S,3R)-3-Hydroxy-2-[[(6-phenylpyridin-2-yl)carbonyl]amino]-1-oxobutyl]amino]-3-methylbutyl]boronic acid hydrolysis product. Stability was tested at time zero (T0), and after storage for one month (1M), six months (6M) and (except for the 40° C./75% RH conditions) one year (12M).
# [2] = Comparative storage stability of Compound 1, Batches A, B, C (Example 9A); assay type: physicochemical
# Procedure: Three (3) separate batches of Compound 1 were tested for storage stability. The batches are identified as Batch A, Batch B, and Batch C below. Bulk solid state drug substance was put in polyethylene (PE) double bag in high-density polyethylene (HDPE) containers and the containers were stored under the indicated conditions.
# [3] = Occupational exposure limit (OEL)
# [4] = Comparative bioavailability of bortezomib and boronic ester of Formula XI in rat, Example 10 (i.v.; p.o. in saline); assay type: in vivo, male Sprague Dawley rats; details: male, Sprague Dawley, iv, bortezomib in plasma, 0.8 mg/kg, mean ± SEM
# Procedure: Three adult male Sprague Dawley rats were used in each treatment group. The rats were fasted overnight prior to oral dose administration. Intravenous administration was via the lateral tail vein and oral doses were administered by gavage. The compound was administered iv in a vehicle of 3% DMSO:30% Solutol:67% phosphate buffered saline. Oral dosing was in phosphate buffered saline.
# For blood collection, each rat (unanesthetized) was placed in a clear Plexiglas® restraining tube, and blood samples (approximately 0.25 mL) were drawn from a lateral tail vein into heparinized collection tubes at predetermined sampling times (0.083, 0.25, 0.5, 1, 2, 4, and 6 hours post dose). No pre-dose samples were obtained. The exception to this procedure was the last sampling time in which the animals were sacrificed by decapitation and trunk blood was obtained rather than blood via a tail vein. The blood samples were placed on wet ice until centrifuged to separate plasma. The plasma fraction was transferred into clean dry tubes, frozen on dry ice and stored at approximately −20° C. pending analysis.
# Plasma was prepared for high performance liquid chromatography (HPLC)/mass spectrometric analysis according to standard protocol following protein precipitation with acetonitrile containing an internal standard. The plasma samples were then analyzed for both bortezomib and alprenolol (internal standard) via HPLC coupled with tandem mass spectrometry.
# The plasma concentration data for all rats were entered into Excel spreadsheets in preparation for pharmacokinetic analysis. Pharmacokinetic parameters for bortezomib were estimated for each rat by non-compartmental analysis (Gibaldi M, Perrier D. Pharmacokinetics, 2nd edition, Marcel Dekker, New York, Chapter 11, 1982) of the plasma concentration versus time data using WinNonlin software (Professional Version 4.1, Pharsight Corporation, Palo Alto, Calif., 1997).
# The maximum plasma concentration (Cmax) was the highest observed plasma concentration after an oral dose; tmax was the corresponding time when Cmax was observed. The terminal rate constant for elimination from plasma (β) was estimated by linear regression of the terminal portion of the semi-logarithmic plasma concentration versus time curve. The apparent terminal half-life (t1/2) was calculated as 0.693 divided by β. The area under the plasma concentration versus time curve from time zero to the time of the last measurable concentration (AUC0-t) after a single dose was determined by the linear trapezoidal rule. The area from zero to infinity (AUC0-∞) was calculated as the sum of AUC0-t and the area extrapolated from the last measurable concentration to infinity (Clast/β). Concentrations pre dose were all assumed to be zero for the purpose of calculation of the AUC. Oral bioavailability was determined by dividing the dose normalized oral AUC0-∞ by the AUC0-∞ from iv dosing and multiplying by 100 to express the ratio as a percent.
# [5] = Batch B, 5° C./ambient RH, 1 Month
# [6] = Batch B, 5° C./ambient RH, 3 Month
# [7] = Batch B, 5° C./ambient RH, 6 Month
# [8] = Batch C, 5° C./ambient RH, 1 Month
# [9] = Batch C, 5° C./ambient RH, 3 Month
# [10] = Batch C, 5° C./ambient RH, 6 Month
# [11] = Batch C, 5° C./ambient RH, 12 Month
compound,measurement,setting,value
"6-(2S,3R)—N-[(1R)-1-(1,3,6,2-dioxazaborocan-2-yl)-3-methylbutyl}-3-hydroxy-2-{(6-phenylpyridin-2-yl)formamido]butanamide [boronic ester of Formula X]",Appearance,"[1]; 4° C., 1 M",White to off-
same,Appearance,"[1]; 4° C., 6 M",White to off-
same,Appearance,"[1]; 4° C., 12 M",White to off-
same,Chemical purity (%),"[1]; 4° C./ambient RH, 1 M",99.8%
same,Impurity by HPLC (%) RRT = 0.49,"[1]; 4° C./ambient RH, 1 M",0.06%
same,Impurity by HPLC (%) RRT = 1.18,"[1]; 4° C./ambient RH, 1 M",0.17%
same,Chemical purity (%),"[1]; 4° C./ambient RH, 6 M",99.9%
same,Chemical purity (%),"[1]; 4° C./ambient RH, 12 M",99.9%
same,Impurity by HPLC (%) RRT = 1.18,"[1]; 4° C./ambient RH, 12 M",0.07%
same,Appearance,"[1]; 25° C./60% RH, 1 M",White to off-
same,Chemical purity (%),"[1]; 25° C./60% RH, 1 M",99.6%
same,Impurity by HPLC (%) RRT = 0.49,"[1]; 25° C./60% RH, 1 M",0.09%
same,Impurity by HPLC (%) RRT = 1.18,"[1]; 25° C./60% RH, 1 M",0.32%
same,Appearance,"[1]; 25° C./60% RH, 6 M",White to off-
same,Chemical purity (%),"[1]; 25° C./60% RH, 6 M",99.8%
same,Impurity by HPLC (%) RRT = 0.49,"[1]; 25° C./60% RH, 6 M",0.08%
same,Impurity by HPLC (%) RRT = 1.18,"[1]; 25° C./60% RH, 6 M",0.06%
same,Appearance,"[1]; 25° C./60% RH, 12 M",White to off-
same,Chemical purity (%),"[1]; 25° C./60% RH, 12 M",99.9%
same,Impurity by HPLC (%) RRT = 0.49,"[1]; 25° C./60% RH, 12 M",0.07%
same,Impurity by HPLC (%) RRT = 1.18,"[1]; 25° C./60% RH, 12 M",0.08%
same,Appearance,"[1]; 40° C./75% RH, 1 M",White to off-
same,Chemical purity (%),"[1]; 40° C./75% RH, 1 M",99.7%
same,Impurity by HPLC (%) RRT = 0.49,"[1]; 40° C./75% RH, 1 M",0.10%
same,Impurity by HPLC (%) RRT = 1.18,"[1]; 40° C./75% RH, 1 M",0.18%
same,Appearance,"[1]; 40° C./75% RH, 6 M",White to off-
same,Chemical purity (%),"[1]; 40° C./75% RH, 6 M",99.8%
same,Impurity by HPLC (%) RRT = 0.49,"[1]; 40° C./75% RH, 6 M",0.10%
same,Impurity by HPLC (%) RRT = 1.18,"[1]; 40° C./75% RH, 6 M",0.11%
same,Appearance,[1]; T0,White to off-
same,Impurity by HPLC (%) RRT = 1.18,[1]; T0,0.50%
same,Chemical purity (%),"[1]; T0, HPLC of Compound 1 hydrolysis product",99.5%
"CC(C)C[C@H](NC(=O)[C@@H](NC(=O)c1cccc(-c2ccccc2)n1)[C@@H](C)O)B(O)O [Compound 1, [(1R)-1-[[(2S,3R)-3-hydroxy-2-[6-phenyl-pyridine-2-carbonyl)amino]-1-oxobutyl]amino]-3-methylbutylboronic acid]",HPLC Purity (%),"[2]; Batch A, 4° C./ambient RH, 3 M",94.5%
same,Appearance,"[2]; Batch A, 4° C./ambient RH, 3 Months",White to off-
same,HPLC Purity (%),"[2]; Batch A, 4° C./ambient RH, 6 M",94.1%
same,Appearance,"[2]; Batch A, 4° C./ambient RH, 6 Months",White to off-
same,HPLC Purity (%),"[2]; Batch A, 25° C./60% RH, 3 M",94.4%
same,Appearance,"[2]; Batch A, 25° C./60% RH, 3 Months",White to off-
same,HPLC Purity (%),"[2]; Batch A, 25° C./60% RH, 6 M",94.1%
same,Appearance,"[2]; Batch A, 25° C./60% RH, 6 Months",White to off-
same,HPLC Purity (%),"[2]; Batch A, 40° C./75% RH, 3 M",93.2%
same,Appearance,"[2]; Batch A, 40° C./75% RH, 3 Months",White to off-
same,HPLC Purity (%),"[2]; Batch A, 40° C./75% RH, 6 M",88.7%
same,Appearance,"[2]; Batch A, 40° C./75% RH, 6 Months",White to off-
same,Appearance,"[2]; Batch A, T0",White to off-
same,HPLC Purity (%),"[2]; Batch A, T0 (estimated)",95.3* %
same,Appearance,[2]; [5],White powder
same,Assay by HPLC (anhydrous) (%),[2]; [5],97.1%
same,Assay by HPLC (as-is) (%),[2]; [5],90.6%
same,Total Impurities (%),[2]; [5],3.0%
same,Water Content (%),[2]; [5],6.0%
same,Appearance,[2]; [6],White
same,Assay by HPLC (anhydrous) (%),[2]; [6],94.0%
same,Assay by HPLC (as-is) (%),[2]; [6],87.5%
same,Total Impurities (%),[2]; [6],5.9%
same,Water Content (%),[2]; [6],6.1%
same,Appearance,[2]; [7],White powder
same,Assay by HPLC (anhydrous) (%),[2]; [7],93.5%
same,Assay by HPLC (as-is) (%),[2]; [7],85.1%
same,Total Impurities (%),[2]; [7],7.3%
same,Water Content (%),[2]; [7],8.2%
same,Appearance,"[2]; Batch B, 5° C./ambient RH, T0",White
same,Assay by HPLC (anhydrous) (%),"[2]; Batch B, 5° C./ambient RH, T0",101.7%
same,Assay by HPLC (as-is) (%),"[2]; Batch B, 5° C./ambient RH, T0",94.4%
same,Total Impurities (%),"[2]; Batch B, 5° C./ambient RH, T0",0.6%
same,Water Content (%),"[2]; Batch B, 5° C./ambient RH, T0",6.5%
same,Appearance,[2]; [8],White to yellow
same,Assay by HPLC (anhydrous) (%),[2]; [8],97.0%
same,Assay by HPLC (as-is) (%),[2]; [8],91.4%
same,HPLC Purity (%),[2]; [8],97.2%
same,Water Content (%),[2]; [8],4.59%
same,Appearance,[2]; [9],White to yellow
same,Assay by HPLC (anhydrous) (%),[2]; [9],102.4%
same,Assay by HPLC (as-is) (%),[2]; [9],94.6%
same,HPLC Purity (%),[2]; [9],96.2%
same,Water Content (%),[2]; [9],6.48%
same,Appearance,[2]; [10],Off-white
same,Assay by HPLC (anhydrous) (%),[2]; [10],99.9%
same,Assay by HPLC (as-is) (%),[2]; [10],91.0%
same,HPLC Purity (%),[2]; [10],96.3%
same,Water Content (%),[2]; [10],7.74%
same,Appearance,[2]; [11],Off-white
same,Assay by HPLC (anhydrous) (%),[2]; [11],95.9%
same,Assay by HPLC (as-is) (%),[2]; [11],87.0%
same,HPLC Purity (%),[2]; [11],96.2%
same,Water Content (%),[2]; [11],8.16%
same,Appearance,"[2]; Batch C, 5° C./ambient RH, T0",Yellowish
same,Assay by HPLC (anhydrous) (%),"[2]; Batch C, 5° C./ambient RH, T0",98.1%
same,Assay by HPLC (as-is) (%),"[2]; Batch C, 5° C./ambient RH, T0",92.9%
same,HPLC Purity (%),"[2]; Batch C, 5° C./ambient RH, T0",98.2%
same,Water Content (%),"[2]; Batch C, 5° C./ambient RH, T0",4.16%
same,increase of total impurities,"[2]; within six months, refrigerated conditions",more than 10 fold
same,occupational exposure limit (OEL),[3],0.3 μg/m^3
"CC(C)C[C@H](NC(=O)[C@H](Cc1ccccc1)NC(=O)c1cnccn1)B(O)O [bortezomib, [(1R)-3-methyl-1-({(2S)-3-phenyl-2-[(pyrazin-2-ylcarbonyl)amino]propanoyl}amino)butyl]boronic acid]",AUC(0-inf),[4]; n = 3,472 ± 127 ng·h/mL
same,AUC(0-t),[4]; n = 3,459 ± 127 ng·h/mL
same,Vd,[4]; n = 3,2.4 ± 0.8 L/kg
same,clearance,[4]; n = 3,34 ± 11 mL/min/kg
same,half-life,"[4]; n = 3, read-out: t1/2, h (converted)",48 ± 6 min
